Experiments:
A549 cells = experiment: Cell viability (CellTiter-Glo ATP assay) in A549 cells; type: cell-based, human; conditions: 24 h; for relative ATP levels (cell viability): CellTiter-Glo ATP assay, luminescence, mean ± SD of three independent assays, n ≥ 5 wells per dose
Protocol: (§1) Figure 6 Loss of cancer-killing ability in TP4 mutants. (A) Cell viability in A549 cells was determined by the adenosine triphosphate (ATP) assay following treatment with varying doses of TP4 and TP4 mutants for 24 h. Multiple wells were analyzed for each assay. Results represent the mean ± SD. Statistical comparisons between groups were performed using two-way ANOVA: a, not significant; b, p < 0.05; d, p < 0.001. Statistical analyses are shown in Supplementary Table S1. (B) Cells were stained for TP4 (WT panel), FITC (MT-1 to MT-6 panels), α-Tubulin, and F-actin. Hoechst33342 was used for nuclei staining. Boxed regions are magnified in the furthest right panels. […] Bar: 20 μm.
The A549 cell line (Bioresource Collection and Research Center (BCRC) 60074) was purchased from the BCRC and cultured according to BCRC recommendations. For the cell viability and transfection assay, 4–5 × 10^3 cells were seeded into the wells of a 96-well plate and cultured overnight. Cells were then treated according to the indicated doses and times. Cell viability was quantified using the CellTiter-Glo® Luminescent Cell Viability Assay kit (ATP assay) (Madison, WI, USA) as previously described. The luminescent signal was measured using a photometer (SpectraMax® i3, Molecular Devices, Wals, Austria).
For the multi-well based assay, cells were plated at least in quadruplicate. Data were collected from independently repeated experiments (N ≥ 3) and were analyzed by Prism5 software (GraphPad Inc., La Jolla, CA, USA). Statistical significance was determined by a two-tailed Student’s t-test or one-way/two-way analysis of variance (ANOVA) with a Bonferroni post hoc test. Differences were considered statistically significant at p < 0.05. […]
Supplementary Table S1. Cellular toxicit y of TP 4 to A549 cells was evaluated b y cell viability. Results of statis tical tests on data in Figu re 6A are shown. Multiple wells were anal yzed for each ex periment (n ≥ 5 wells per do se). Results represent the mean ± SD from three independent assays. Statistical comparisons between mock versus TP4 treatment groups were performed using two -way ANOVA anal ysis with Bonferroni post-hoc test: a, not signi ficant; b, P < 0.05; c, P < 0.01; d, P < 0.001. […]
(A-G) Th e helical projection plot and s tructural model o f TP4 (A) and TP4 variants (MT-1 to MT-6, B-G ). The helical proj ecti on was produced b y an online helical wheel projection program (http://rzlab.ucr.edu/scripts/wheel/wheel.cgi). Amino acid residues are numbered and each amino acid is connected with lines to indicate its relative position along the helix. The hydrophobic residues are shown as diamonds ; h ydrophilic residues are circles. Residues with negative charge are shown as trian gles and positively charged residues are pentagons. Hydrophobicity is color coded. The

[1] = test system: microtubule network (α-Tubulin) in A549 cells; experiment: Immunocytochemistry of microtubule network and peptide uptake in A549 cells; type: cell-based, human; conditions: for effect on microtubule network (α-Tubulin ICC): FITC-labeled mutants
Protocol: To examine whether TP4 may affect microtubule dynamics, A549 cells were treated with TP4, and cytoskeletal elements were analyzed by immunocytochemistry (ICC). […] We then asked whether TP4 treatment may influence tubulin protein levels by performing Western blots on lysates from A549 cells that had been treated with vehicle or TP4. […] We next conducted a microtubule regrowth assay to further address whether TP4 may disrupt microtubule polymerization. TP4 was applied to A549 cells that had been treated with or without Nocodazole (20 μM) treatment for 6 h, which completely depolymerizes the microtubule network. The repolymerization of microtubules was then initialized by the addition of fresh recovery medium, and regrowth was analyzed by ICC.
While the reduced toxicity may result from impaired binding to tubulin, it is also possible that such effects may be caused by conformational changes in the TP4 mutants, see Supplementary Figure S1C,D, which prevent intracellular penetration. To test this possibility, ICC was conducted to evaluate the cellular localization and the effects on microtubules. […] For both Gly and Ala substitution mutants, FITC-labeled TP4 mutants were able to be taken up intracellularly, see Figure 6B, panels MT-1 to MT-6. However, the microtubule network was only affected in MT-1- and MT-4-treated cells and not the other mutant-treated groups, as shown in Figure 6B.
as §1
Cells were stained with TP4 (1:1000), FITC (1:500, ThermoFisher Scientific, clone 1F8-1E4), α-Tubulin (1:500), and appropriate Alexa Flour conjugated secondary antibody (1:500; ThermoFisher Scientific, Eugene, OR, USA). Hochest33342 was used for nuclear staining, and Alexa Fluor 647-conjugated phalloidin (1:200, Thermo Fisher Scientific, Eugene, OR, USA) was used to stain F-actin. For the confocal microscopic analysis, samples were mounted with fluorescent mounting medium (ProLong Gold Antifade Reagent, ThermoFisher Scientific, Eugene, OR, USA) and images were obtained with a FV3000 laser-scanning confocal microscope (Olympus), using a 60 × objective lens (Plapon 60 × OSC2, N.A. 1.4, oil) with the 4′,6-diamidino-2-phenylindole (DAPI) ([…]), green fluorescent protein (GFP) (EX 470, EM 525 for enhanced GFP (EGFP)), and Cy5 ([…]) emission filters. FV31S software (Olympus, Tokyo, Japan) was used for image acquisition.

FIHHIIGGLFSAGKAIHRLIRRRRR [TP4, synthesized Nile tilapia-derived antimicrobial peptide, Tilapia piscidin 4]
relative ATP levels (cell viability) (A549 cells; 3.35 µM): 0.580±0.061
relative ATP levels (cell viability) (A549 cells; 5.03 µM): 0.211±0.030
relative ATP levels (cell viability) (A549 cells; 6.71 µM, listed as WT): 0.129±0.034
relative ATP levels (cell viability) (A549 cells; 6.71 µM, listed as wild-type TP4, 6.71 µM): 0.130 ± 0.036
relative ATP levels (cell viability) (A549 cells; 20.12 µM, listed as WT): 0.009±0.010
relative ATP levels (cell viability) (A549 cells; 20.12 µM, listed as wild-type TP4, 20.12 µM): 0.010 ± 0.010
cytotoxicity to A549 cells (in words) (A549 cells; doses 3.35-20.12 µM, ATP assay, Figure 6A): obvious dose-dependent cytotoxic effects
effect on microtubule network (α-Tubulin ICC; F-actin not affected) ([1]; A549 cells treated with TP4, Figure 2A): clearly affected
effect on microtubule network (α-Tubulin ICC) ([1]; A549 cells, TP4 6.71 μM, 3 h, Figure 6B): microtubule defects were clearly observed
effect on microtubule network (α-Tubulin ICC) ([1]; A549 cells, TP4 6.71 μM, 3 h, Figure 6B, listed as WT): microtubule abnormalities were observed
intracellular uptake (ICC, TP4 antibody or FITC) ([1]; A549 cells, TP4 6.71 μM, 3 h, mutants FITC-labeled, Figure 6B): peptide penetration

Reference: publication PMC6315541, “Nile Tilapia Derived Antimicrobial Peptide TP4 Exerts Antineoplastic Activity Through Microtubule Disruption” (Marine Drugs, 2018)
